Data published in patent US11466054B2, “Inhibitors of metastasis” (BIOMARCK PHARMACEUTICALS LTD., priority 2013, dated 2022).
Where no end group is shown, it is not given here.

Columns and labels:
A549 cells = test: Anti-metastatic efficacy in SCID mice given A549 cells via the tail vein; format: in vivo; details: Day 53; for No. of metastatic nodules in lungs Mean ± SEM: aerosol 100 μM every other day for 7 weeks
Method: Female NOD.CB17-Prkdc^scid/NCrHsd, Mus musculus mice (Harlan, The Netherlands), housed in individually ventilated cages, were randomized into six groups of eight mice each. A549 cells (2.5×10^6) were injected into the mice via the tail vein. The control group received aerosolized vehicle PBS; while the groups 2 and 3 received the aerosolized test compound BIO-11006 either from −1 day before the cancer cells injection (group 2) or from +3 days after the cancer cell injection (group 3) on every other day for 7 weeks via nebulizer (Aeroneb Lab). Groups 4 and 5 received the aerosolized test compound MANS peptide either from −1 day before the cancer cell line injection (group 4) or from +3 days after the cell line injection (group 5) on every other day for 7 weeks via a nebulizer (Aeroneb Lab). For aerosol delivery, solution of each test compound (100 μM) was prepared in PBS, pH 7.0. For each treatment, 5 mL of test compound solution was aerosolized over 30 minutes into a chamber containing four mice at a time. The mice were monitored for body weight every other day for 7 weeks.
One group of mice (n=7) served as normal control. These were untreated naïve mice used to monitor the health status of mice during the study period. All animals from all groups were sacrificed on Day 53. FIG. 15 compares number of metastatic nodules in lungs after respective administration of BIO-11006 and MANS peptide on Day 53 following A549 cell injection. […] There were few focal tumor nodules in ⅞ of mice treated with BIO-11006 peptide starting at either Day −1 or Day +3 relative to A549 cell injection.

CL1-5 cells = test: Transwell migration assay, CL1-5 cells pretreated with peptide; format: cell-based, human; details: 12 hours; for cell number: control approximately 105; for migration index: control=1.0;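 for migration index: index equals control cell count divided by treated cell count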
Method: CL1-5 cells, an aggressively metastatic cell line derived from a human adenocarcinoma, were cultured in RPMI 1640 media with 10% FBS, 37° C. at 95% […]/5% CO2 until ready for use. Transwell plates (24-well, 8-um pore size; Costar, Cambridge, Mass., USA) were used to conduct the migration assay. The lower chambers of the Transwell plates were filled with 600 μl of basal media containing 10% FBS. The cells (1×10^5) were pretreated with 50 or 100 μM of the indicated test peptide for 30 min, and then suspended in 100 μl of basal media containing 1% BSA and added to the upper chamber, and the cells then were incubated at 37° C. for 12 hr. The cells on the upper surface of the filters were removed using cotton swabs, and the cells that migrated to the lower surface of the filters were washed, fixed, and stained with hematoxylin and counted under the microscope. The percent change in migration was determined by counting the number of cells that migrated to the lower surface of the filters. At least 3 separate microscopic fields were counted per membrane (n=4).
Primary CL1-5 cells originated from human adenocarcinoma lung cancer Transwell plates with 24-wells, 8-μ pore size (Costar, Cambridge, Mass., USA) were used to conduct the migration assay. The lower chambers of the transwell plates were filled with 600 μL of basal media containing 10% FBS. The cells (1-2×10^5) were suspended in 100 μL of basal media containing 1% BSA. The test peptide at desired concentration was added to the upper chamber directly or after preincubation with cancer cells. The plates were then incubated at 37° C. for 12 hours. The cells on the upper surface of the filters were removed using cotton swabs. The cells that migrated to the lower surface of the filters were washed, fixed, and stained with hematoxylin and counted under the microscope. At least five separate microscopic fields are counted per membrane (n=3). The percent change in migration was determined by counting the number of cells that migrated to the lower surface of the filters.
The count means the actual number of cells which migrated to the lower chamber and counted by a light microscope at 40× magnification, presented as the mean number of cells in 10 randomly chosen fields for each treatment.
The “index” was calculated by dividing the number of cells that migrated in the presence of peptides by the number of cells that migrated randomly (control group). […]. This calculation can reflect the extent that the migration of cells was blocked by 30 minute pretreatment with MANS-related peptides.

[1] = CL1-5, 50 μmolar pretreatment, FIG. 9
[2] = CL1-5, 100 μmolar pretreatment, FIG. 10

With “N-acetyl-GAQFSKTAAK (Ac-GAQFSKTAAK; listed as Homo sapiens) [BIO-11006]” the “animals with few focal tumor nodules” value (A549 cells; +3 Day treatment group) was “Few focal tumor nodules in 7/8”, the distant metastasis (A549 cells; +3 Day treatment group) was “No distant metastasis” and the “No. of metastatic nodules in lungs Mean ± SEM” value (A549 cells; +3 Day treatment group) was 21 ± 6. For the same substance, the “animals with few focal tumor nodules” value (A549 cells; −1 Day treatment group) was “Few focal tumor nodules in 7/8”, the distant metastasis (A549 cells; −1 Day treatment group) was “No distant metastasis” and the “No. of metastatic nodules in lungs Mean ± SEM” value (A549 cells; −1 Day treatment group) was 34 ± 14. For the same substance, the cell number (CL1-5 cells; [1]) was “approximately 50”, the migration index (CL1-5 cells; [1]) was “approximately 2” and the cell number (CL1-5 cells; [2]) was “approximately 50”. For the same substance, the migration index (CL1-5 cells; [2]) was “approximately 2.1”.
